Reference: patent US4524068A, “Cyclodextrin inclusion complex of piperonyl butoxide” (priority 1982, dated 1985)
Values after ≈ are worked out from the molar mass of the structure shown.

Key:
Sitophilus granarius [1] = assay: 24 hours' mortality of tetrametrin and cinerin with synergist (Example 10); settings: for mortality at 10 mg/disk: Sitophilus granarius, 24 h, read-out: 24 hours' mortality, Paralitical and killed insects
Procedure: (§1) As insecticide tetrametrin and cinerin I are used. The insecticidal effect is tested on 2-4 weeks' old Sitophilus granarius (Corn-Weevil) imago.
(§2) Piperonyl butoxide and the complex of piperonyl butoxide and cyclodextrin are applied as described in Example 9. The ratio of pyrethroide and synergistic agent amounts to 1:4 in all cases. The efficiency of insecticidal effect is proportional to the value of the 24 hours' mortality (killing effect).

Sitophilus granarius [2] = assay: Knock-down effect of tetrametrin and cinerin I with synergist (Example 10); format: in vivo, Sitophilus granarius (Corn-Weevil); settings: pyrethroide:synergistic agent 1:4
Procedure: as §1, §2

[3] = system: Drosophila melanogaster Meigen (vinegar midge); assay: 24 hours' mortality of tetrametrin on midges pre-fed with piperonyl butoxide or its complex (Example 8); format: in vivo; settings: pre-fed with synergist
Procedure: The emulsion and suspension also contain 5% of sucrose.
Next day the 24 hours' mortality is determined.

physchem = settings: water
[4] = cited from earlier work

SMILES	mortality at 10 mg/disk (Sitophilus granarius [1]) [%]	24 hours' mortality; Paralitical and killed insects (Sitophilus granarius [1]; pyrethroide dose 1.250 mg/disk, pyrethroid:synergist 1:4) [%]	Knock-down effect (Sitophilus granarius [2]; 90 minutes)	Knock-down effect (Sitophilus granarius [2]; 170 minutes)	Knock-down effect (Sitophilus granarius [2]; 210 minutes)	Knock-down effect (Sitophilus granarius [2]; 300 minutes)	Mortality (24 hours mortality; killing effect) ([3]; tetrametrin dose 0.078 mg/disk) [%]	Mortality (24 hours mortality; killing effect) ([3]; tetrametrin dose 0.156 mg/disk) [%]	Mortality (24 hours mortality; killing effect) ([3]; tetrametrin dose 0.313 mg/disk) [%]	Mortality (24 hours mortality; killing effect) ([3]; tetrametrin dose 0.625 mg/disk) [%]	Mortality (24 hours mortality; killing effect) ([3]; tetrametrin dose 1.250 mg/disk) [%]	Mortality (24 hours mortality; killing effect) ([3]; tetrametrin dose 5.000 mg/disk) [%]	solubility at 1 h (physchem) [µg/mL]	solubility in organic solvents ([4]; organic solvents)	solubility in water ([4]; water)
C/C=C\CC1=C(C)[C@@H](OC(=O)[C@@H]2[C@@H](C=C(C)C)C2(C)C)CC1=O [cinerin]	31	0	6	9	8	2	–	–	–	–	–	–	–	–	–
CCCCOCCOCCOCc1cc2c(cc1CCC)OCO2 [piperonyl butoxide, 5-{[2-(2-butoxy-ethoxy)-ethoxy]-methyl}-6-propyl-1,3-benzodioxole]	–	–	–	–	–	–	0	8	34	48	100	100	66 (≈ 195 µM)	soluble in organic solvents	substantially insoluble in water
CC(C)=CC1C(C(=O)OCN2C(=O)C3=C(CCCC3)C2=O)C1(C)C (centres unmarked) [tetrametrin]	41	–	0	9	9	6	–	–	–	–	–	–	–	–	–
